In this assay the target is Cell division control protein 42 homolog (Homo sapiens) (UniProt P60953). Briefly: inhibition of fluorescent GTP binding to mutant Cdc42 – biochemical, probe extension, bead-based multiplex flow cytometry, round 1, SAR follow-up (AID 588373). The note with it: Bodipy-FL-GTP binding, EDTA.

The results in this text go back to PubChem BioAssay AID588373 (NMMLSC, 2011).

Cell division control protein 42 homolog (Homo sapiens), sequence (P60953 whole entry, looked up): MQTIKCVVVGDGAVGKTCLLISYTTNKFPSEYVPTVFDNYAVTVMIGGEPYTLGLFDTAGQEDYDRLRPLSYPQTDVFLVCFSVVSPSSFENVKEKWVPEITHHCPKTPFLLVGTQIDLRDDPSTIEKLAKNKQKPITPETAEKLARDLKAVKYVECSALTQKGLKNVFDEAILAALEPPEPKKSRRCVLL

On to `NS(=O)(=O)c1ccc(N2N=C(c3ccccc3)CC2c2ccccc2)cc1` (stereo not drawn), for which the EC50 is 6.14 µM.

With `COc1ccc(C2CC(c3ccccc3)=NN2c2ccc(S(N)(=O)=O)cc2)cc1` (stereo not drawn), the EC50 is 1.89 µM.

Turning to `O=C(C#Cc1ccccc1)c1cccc([N+](=O)[O-])c1`, the EC50 was 0.368 µM.
